Values joined by “and” are separate entries in the source; they are usually repeats but may differ in a detail not shown here. Equal entries are not always repeated. Where two headings read alike, the source gives them in different places.
Experiments:
[1] = biological target: Menin/MLL-4-43 peptide interaction (Homo sapiens (Human), UniProt O00255); assay: Menin-MLL interaction inhibitory activity assay (fluorescence polarization competition); assay type: binding; conditions: FITC-MLL4-43-peptide, Menin recombinant protein
Method in brief: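 Menin (8 nM solution) was preincubated 15 min with compound, then FITC-MLL4-43 peptide (10 nM solution) was added and shaken for 60 min at 25 °C. The buffer was 50 mM Tris pH 7.5, 50 mM NaCl, 1 mM DTT. IC50 was derived from fluorescence polarization read at 485/520 nm.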

MV4-11 = assay: Cell proliferation inhibition (CellTiter-Glo), MV4-11; assay type: cell-based; conditions: MV4-11 cells
Method in brief: (§1)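 CellTiter-Glo luminescence read-out (10 min RT) after 72-168 h culture at 37° C, 5% CO2; cells plated 5,000-20,000/well; compound final 1 nM-10 μM; IC50 from curve fit.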

MOLM-13 = assay: Cell proliferation inhibition (CellTiter-Glo), MOLM-13; assay type: cell-based; conditions: MOLM-13 cells
Protocol: Test Example 2: Test of the Inhibitory Ability of Menin-MLL Interaction Inhibitors on Cell Proliferation
The inhibitory ability of the compounds of the present disclosure on the proliferation of tumor cell lines (including cell lines containing MLL fusion protein such as MV4-11, MOLM-13, THP-1 and NOMO-1, control cell lines without MLL fusion protein such as HL-60, K562 and MOLM-16, and cell lines containing NPM1 mutation such as OCI-AML3) was evaluated by using the cell viability analysis method. The cells were plated in 96-well plates at a certain concentration (e.g., 5,000-20,000 cells/well), and then an equal volume of culture medium containing 2 times the final concentration of the test compound (the final concentration ranging 10 from 1 nM to 10 μM) was added. The plates were placed in an incubator and cultured at 37° C. and 5% CO2 for 72-168 h. Before the test, an equal volume of CellTiter-Glo® Luminescent reagent was added, and the plate was incubated at room temperature for 10 min before detection using an ELISA reader (BMG LABTECH). The data were analyzed using GraphPad Prism software to obtain the IC50 value and compound fitting curve. The control compound 1 was prepared by referring to the method of Example 64 in WO2017214367.

OCI-AML3 = assay: Cell proliferation inhibition (CellTiter-Glo), OCI-AML3 (NPM1 mutation); assay type: cell-based; conditions: OCI-AML3 cells
Method in brief: as §1

[2] = Stability in mouse liver microsomes; assay type: in vitro ADME; conditions: 1.00 μM compound, NADPH; for half-life at 1 μM: liver microsomes, pH 7.4, 0.5 mg/mL microsomal protein, read-out: Half life T1/2, mouse liver microsomes
Protocol: (§2) Test Example 3: Test of Stability of Compounds in Liver Microsome
(§3) Test purpose: To determine the stability of some of the compounds of the present disclosure in mouse, dog and human liver microsomes by LC-MS/MS method.
(§4) Test materials: The test drugs were in-house prepared example compounds of the present disclosure; the positive reference compound SNDX-5613 was prepared by the method of Example 253 in patent WO2017214367; the control compound 1 was prepared by the method of Example 64 in WO2017214367; liver microsomes were purchased from CORNING.
(§5) The total volume of each incubation system was approximately 45 μL, and the medium was 100 mM phosphate buffer (PBS, pH 7.4), including liver microsomal protein at a final concentration of 0.5 mg/mL, 1.00 μM compound and 2.00 mM NADPH, and the organic phase content was <1%. Incubation was performed in a 37° C. incubator, and 135 μL of ice-cold acetonitrile was added after 0, 5, 15, 30 and 60 min of reaction to terminate the reaction. The positive control group was incubated with 1.00 μM Ketanserin, 0.5 mg/mL liver microsomal protein and 2.00 mM NADPH in a 37° C. incubator for 0, 5, 15, 30 and 60 min respectively, and then 135 μL of ice-cold acetonitrile was added to terminate the reaction. The 96-well plates were shaken at 600 rpm for 10 min and then centrifuged at 4700 rpm at 4° C. for 15 min. 80 μL of supernatant was mixed with 320 μL of pure water, and the remaining amount of the compound was detected by LC-MS/MS method. The in vitro half life (T½) and intrinsic clearance (CLint) were calculated according to the following formula:
(§6) Intrinsic clearance (Clint)=(0.693/T1/2)×(1/liver microsome concentration)×conversion factor. k is the linear regression slope of the remaining percentage of the ln compound-incubation time.

[3] = Stability in human liver microsomes; assay type: in vitro ADME; conditions: 0.5 mg/mL microsomal protein, 1.00 μM compound, NADPH; for half-life at 1 μM: human, liver microsomes, pH 7.4, Human, read-out: Half life T1/2, human liver microsomes
Protocol: as §2, §3, §4, §5, §6

[4] = Stability in dog liver microsomes; assay type: in vitro ADME; conditions: 0.5 mg/mL microsomal protein, 1.00 μM compound, NADPH; for half-life at 1 μM: dog, liver microsomes, pH 7.4, Dog, read-out: Half life T1/2, dog liver microsomes
Protocol: as §2, §3, §4, §5, §6

[5] = Pharmacokinetics test in mouse; assay type: in vivo, ICR mice; conditions: mice, p.o. 10 mg/kg
Source text: Test Example 4. In Vivo Pharmacokinetic Study
Test purpose: To determine the pharmacokinetic properties of some of the example compounds of the present disclosure in mice, rats and dogs after single intravenous injection (i.v.) and oral gavage (i.g.) administration by LC-MS/MS method.
Research methods: An appropriate amount of compound was weighed and prepared into a transparent clear solution of a certain concentration using 0.9% sodium chloride injection and 1.5 equivalents of 1M HCl aqueous solution based on the molar number of the compound. After SPF male ICR mice, SPF male SD rats, and male beagle dogs were fasted overnight, the test compound solution was given by intravenous injection and oral gavage at the corresponding dose. Anticoagulated whole blood of the test animals was collected at 5 min, 15 min, 30 min, 1 h, 2 h, 4 h, 8 h, and 24 h after administration, and plasma was separated. Plasma samples at each time point were detected by LC-MS/MS, and the plasma concentration of the compound was determined by the standard curve correction method. Phoenix WinNonlin 5.2 non-compartmental model was used to calculate the pharmacokinetic parameters of terminal elimination half-life (t½), blood peak concentration (Cmax), area under the concentration-time curve (AUC), clearance (CL), and bioavailability (F %), which was directly obtained from the serum concentration results. Blood drug concentration and pharmacokinetic parameters are expressed as mean±standard deviation (X±SD). The specific test protocols for each species are as follows.
Pharmacokinetics Test in Mouse
Test animals: SPF male ICR mice, weighing 25-30 g, 12 mice/compound, purchased from Chengdu Dossy Experimental Animal Co., Ltd.
Test design: On the day of the test, ICR mice were randomly divided into groups according to body weight, fasted but with free water for 12-14 h one day before administration, and fed 2 h after administration.
Preparation of test compound solution: The concentration of the test compound for oral gavage was 1 mg/mL. An appropriate amount of compound was weighed and prepared into a 1 mg/mL transparent clear solution using 0.9% sodium chloride injection and 1.5 equivalents of 1M HCl aqueous solution. The concentration of the test compound for intravenous injection was 0.2 mg/mL. The 1 mg/mL transparent clear solution was diluted to a concentration of 0.2 mg/mL using 0.9% sodium chloride injection. The volume of 1 M HCl solution added was calculated as: volume of 1 M HCl solution added […]=weighed amount of compound (mg)/molecular weight×1.5×1000. The amount added during preparation must not exceed the calculated value.
The test substance was administered as follows: intravenous injection: 1 mg/kg of dose, 5 mL/kg of volume, 6 mice; oral gavage: 10 mg/kg of dose, 10 mL/kg of volume, 6 mice.
Sample collection: Blood (40-50 μl) was collected in anticoagulant tubes sprayed with EDTA-K2 through the orbital venous plexus at 5 min, 15 min, 30 min, 1 h, 2 h, 4 h, 8 h, and 24 h after administration, and centrifuged at 10,000 rpm for 20 min within 1 h (the blood was saved on wet ice before and after centrifugation). The supernatant, which was plasma, was collected and frozen in a refrigerator at −20° C. or below for LC-MS/MS analysis of Full PK of male ICR mice (2 mice per group, 4 blood collection time points per mouse, crossover).

[6] = biological target: hERG potassium ion channel (Homo sapiens (Human), UniProt Q12809); assay: hERG potassium channel effect test (manual patch clamp, HEK293 cells overexpressing hERG); assay type: cell-based; conditions: for inhibition at 30 μM: human, HEK293 cells overexpressing hERG potassium ion channels, read-out: Average inhibition rate of hERG current at the highest compound tested concentration; for IC50: manual patch clamp, highest test concentration 30 μM
Protocol: Test Example 6: hERG Potassium Channel Effect Test
The hERG inhibition test was performed on some of the example compounds of the present disclosure using the manual electrophysiological patch clamp method. The cell line was derived from HEK293 cells that overexpressed hERG potassium ion channels. The specific experimental protocol was developed by PharmaCore Labs with reference to literature published in peer-reviewed journals and was performed by PharmaCore Labs in accordance with its standard experimental operating procedures. The highest test concentration was 30 μM.

[7] = male, ICR, mouse, plasma, po, 10 mg/kg

Chain of Menin/MLL-4-43 peptide interaction (O00255 whole entry, species assumed): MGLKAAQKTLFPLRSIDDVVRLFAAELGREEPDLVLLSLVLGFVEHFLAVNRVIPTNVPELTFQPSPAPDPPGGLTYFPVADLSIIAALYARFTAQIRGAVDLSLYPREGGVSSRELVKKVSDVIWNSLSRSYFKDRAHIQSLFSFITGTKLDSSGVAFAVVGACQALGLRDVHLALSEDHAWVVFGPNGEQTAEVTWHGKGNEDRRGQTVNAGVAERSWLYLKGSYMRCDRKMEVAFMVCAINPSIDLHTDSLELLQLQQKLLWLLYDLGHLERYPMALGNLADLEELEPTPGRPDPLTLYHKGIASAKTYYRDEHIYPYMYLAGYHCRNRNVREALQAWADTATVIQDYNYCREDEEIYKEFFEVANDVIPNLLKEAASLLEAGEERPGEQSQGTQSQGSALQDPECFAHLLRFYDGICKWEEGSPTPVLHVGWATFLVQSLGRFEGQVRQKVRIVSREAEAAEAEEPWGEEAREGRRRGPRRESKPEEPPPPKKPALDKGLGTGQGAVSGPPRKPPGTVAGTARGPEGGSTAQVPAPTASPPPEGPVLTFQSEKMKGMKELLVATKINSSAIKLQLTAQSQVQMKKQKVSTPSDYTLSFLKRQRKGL
Chain of hERG potassium ion channel (Q12809 whole entry): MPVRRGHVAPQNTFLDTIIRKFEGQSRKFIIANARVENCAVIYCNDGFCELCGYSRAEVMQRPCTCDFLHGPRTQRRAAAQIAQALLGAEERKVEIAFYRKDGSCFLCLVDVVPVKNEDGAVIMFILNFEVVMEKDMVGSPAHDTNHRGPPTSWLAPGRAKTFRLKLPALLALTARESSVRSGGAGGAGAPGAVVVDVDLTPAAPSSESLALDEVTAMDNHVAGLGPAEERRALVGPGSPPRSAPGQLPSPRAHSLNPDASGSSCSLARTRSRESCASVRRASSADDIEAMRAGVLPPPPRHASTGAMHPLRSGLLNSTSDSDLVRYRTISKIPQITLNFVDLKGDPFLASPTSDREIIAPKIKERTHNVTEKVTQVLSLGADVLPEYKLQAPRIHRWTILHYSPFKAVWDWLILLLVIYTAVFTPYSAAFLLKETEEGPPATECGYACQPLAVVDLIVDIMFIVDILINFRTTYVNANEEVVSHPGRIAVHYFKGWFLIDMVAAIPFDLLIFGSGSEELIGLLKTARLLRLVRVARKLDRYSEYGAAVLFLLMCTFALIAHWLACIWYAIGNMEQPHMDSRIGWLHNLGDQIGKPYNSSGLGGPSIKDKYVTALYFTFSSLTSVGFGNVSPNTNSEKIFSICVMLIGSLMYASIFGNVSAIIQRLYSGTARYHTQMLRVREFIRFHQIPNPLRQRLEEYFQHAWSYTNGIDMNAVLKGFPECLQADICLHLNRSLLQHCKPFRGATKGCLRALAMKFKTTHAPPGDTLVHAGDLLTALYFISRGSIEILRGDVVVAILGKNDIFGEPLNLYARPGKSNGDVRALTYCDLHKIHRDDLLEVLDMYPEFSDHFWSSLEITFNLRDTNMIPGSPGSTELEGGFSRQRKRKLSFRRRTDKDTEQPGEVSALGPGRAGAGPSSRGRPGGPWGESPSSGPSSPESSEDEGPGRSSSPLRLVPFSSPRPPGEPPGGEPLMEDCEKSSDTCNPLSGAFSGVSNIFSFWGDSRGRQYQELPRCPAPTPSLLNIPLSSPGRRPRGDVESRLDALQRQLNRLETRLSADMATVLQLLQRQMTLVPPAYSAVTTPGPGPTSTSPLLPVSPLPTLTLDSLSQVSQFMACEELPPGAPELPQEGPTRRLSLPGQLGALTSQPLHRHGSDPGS

SMILES | IC50 [1] [nM] | GI50 (MV4-11; Homo sapiens, MV4-11, 72 h) [nM] | GI50 (MOLM-13; Homo sapiens, MOLM-13, 168 h) [nM] | GI50 (OCI-AML3; Homo sapiens, OCI-AML-3, 168 h) [nM] | half-life at 1 μM [2] [h] | half-life at 1 μM [3] [h] | half-life at 1 μM [4] [h] | also measured
CCN(C(=O)c1cc(F)ccc1Oc1nncnc1N1CC2(CCN(C[C@H]3CC[C@]4(CC3)CC(C(C)(C)O)C(=O)N4)CC2)C1)C(C)C (single isomer, unassigned) [Example 58-1a] | 5.4 | 17.7 | 54.4 | 22.9 | > 2 | 0.396 | 1.16 | –
CCN(C(=O)c1cc(F)ccc1Oc1nncnc1N1CC2(CCN(C[C@H]3CC[C@]4(CC3)CC(C(C)(C)O)C(=O)N4)CC2)C1)C(C)C (single isomer, unassigned) [Example 58-1b] | 5.9 | – | – | – | – | – | – | GI50 (MV4-11; 72 h): 18 nM; GI50 (MOLM-13; 168 h): 56.9 nM; GI50 (OCI-AML3; 168 h): 30.2 nM; Half life T1/2, mouse liver microsomes ([2]; 0.5 mg/mL microsomal protein): >2 h; Half life T1/2, human liver microsomes ([3]; Human): 0.593 h; Half life T1/2, dog liver microsomes ([4]; Dog): 1.14 h
CC(C)N(C(=O)c1cc(F)ccc1Oc1nncnc1N1CC2(CCN(C[C@H]3CC[C@]4(CC3)CC(C(C)(C)O)C(=O)N4)CC2)C1)C(C)C (single isomer, unassigned) [Example 59-1b] | 10.3 | – | – | – | 1.65 | 0.479 | 1.17 | GI50 (MV4-11; 72 h): 9.5 nM; GI50 (MOLM-13; 168 h): 34.3 nM; GI50 (OCI-AML3; 168 h): 20.1 nM
CCN(C(=O)c1cc(F)ccc1Oc1nncnc1N1CC2(CCN(C[C@H]3CC[C@]4(CC3)CC(C)(C)C(=O)N4)CC2)C1)C(C)C [Example 26] | 7.4 | 19.2 | 162 | 94 | 1.33 | 0.618 | 1.04 | –
CCN(C(=O)c1cc(F)ccc1Oc1nncnc1N1CC2(CCN(C[C@H]3CC[C@]4(CC3)C[C@@H](COC)C(=O)N4)CC2)C1)C(C)C [Example 37-2] | 3.3 | 15.2 | 46.5 | 40.9 | > 2 | 1.09 | 1.5 | –
CCN(C(=O)c1cc(F)ccc1Oc1nncnc1N1CC2(CCN(C[C@H]3CC[C@]4(CC3)CC3(CCOCC3)C(=O)N4)CC2)C1)C(C)C [Example 45] | 2.5 | 12.7 | 54.1 | 48.4 | > 2 | 0.618 | 1.53 | –

More lines, main results first:

IC50 [1] [nM] | GI50 (MV4-11; Homo sapiens, MV4-11, 72 h) [nM] | GI50 (MOLM-13; Homo sapiens, MOLM-13, 168 h) [nM] | GI50 (OCI-AML3; Homo sapiens, OCI-AML-3, 168 h) [nM] | half-life at 1 μM [2] [h] | half-life at 1 μM [3] [h] | half-life at 1 μM [4] [h] | SMILES | also measured
34 | 47.8 | 46.5 | 242 | – | – | – | CC(C)N(C(=O)c1cc(F)ccc1Oc1cncnc1N1CC2(CCN(C[C@H]3CC[C@@]4(CCC(=O)N4)CC3)CC2)C1)C(C)C [Example 5] | AUC(0-t) [5, 7]: 7700 ng·h/mL; half-life [5, 7]: 1.37 h; Cmax ([5]; male, ICR, mouse, plasma, po, 10 mg/kg, read-out: Cmax): 2620 ng/mL; AUClast [5]: 8285 ng·h/mL; Cmax [5]: 2535 ng/mL; T1/2 [5]: 1.91 h; F, % ([5]; 1 mg/kg for intravenous injection): 84% and 72%; inhibition at 30 μM [6]: 33.1%; IC50 [6]: > 30000 nM
62.1 | 137 | 389 | 323 | > 2 | 1.3 | 1 | CCN(C(=O)c1cc(F)ccc1Oc1nncnc1N1CC2(CCN(C[C@H]3CC[C@@]4(CCC(=O)N4)CC3)CC2)C1)C(C)C [Example 7] | –
67.2 | 197 | 96.4 | 142 | 1.11 | 0.786 | 1.56 | CC(C)N(C(=O)c1cc(F)ccc1Oc1nncnc1N1CC2(CCN(C[C@H]3CC[C@@]4(CCC(=O)N4)CC3)CC2)C1)C(C)C [Example 8] | –
10.8 | 25.5 | 52.7 | 64.1 | – | – | – | CC1C[C@]2(CC[C@@H](CN3CCC4(CC3)CN(c3ncnnc3Oc3ccc(F)cc3C(=O)N(C(C)C)C(C)C)C4)CC2)NC1=O (stereo partly drawn) [Example 41-1] | inhibition at 30 μM [6]: 13.2%; IC50 [6]: > 30000 nM
